Read-outs that look alike come from different tables or passages of the source.
How the values were obtained:
[1] = tested on: Escherichia coli ATCC-25922; assay: MIC in the presence of normal human serum (50% NHS); assay type: cell-based; conditions: ATCC25922
Excerpt: As used herein, the term “MIC” refers to minimum inhibitory concentrations. Minimum inhibitory concentrations may be determined by broth microdilution according to the Clinical and Laboratory Standards Institute guidelines (see, e.g., […]-A8. Methods for dilution antimicrobial susceptibility tests for bacteria that grow aerobically: approved standard, 8th Ed.; […] One example for measuring minimum inhibitory concentrations may be found in Reck et al., 2012, J. Med. Chem. 55:6916-6933, the disclosure of which is incorporated by reference. Inoculants may be incubated on blood agar plates for 18 to 24 hours. Incubation may occur at a temperature from about 35° C. to about 37° C. […] In serum supplemented experiments, the testing medium (e.g., DMSO solution) and human serum may be mixed. The ratio of testing medium to human serum may be 1:1 (vol:vol). Plates may be read by spectrophotometry at 620 nm. Unless indicated otherwise, all inhibitory concentrations recited in the specification relate to MICs. The MIC tests were based on broth microdilution method in CLSI-M7. […] Solutions of varying concentrations of DMSO were prepared in wells of a v-bottom 96-well plate (Axygen-WIPP02280). A multi-pipette was used to perform serial dilutions as necessary. From well to well, the drug concentrations were 6.4, 3.2, 1.6, 0.8, 0.4, 0.2, 0.1, 0.05, 0.025, 0.0125, 0.00625 and 0 mg/ml in DMSO. For extremely potent antibiotic, the starting concentrations were adjusted accordingly. This was the drug mother plate. Daughter plates were prepared by placing 98 μl of a testing medium into each well of a u-bottom 96-well plate (Costar 3788). An aliquot of each 2 μl solution from each well of the mother plate was then transferred into the corresponding wells of the daughter plate using a multi-pipette work station (CyBi®-SELMA). Testing media were selected based on CLSI-M7, M11 and […]. Cation adjusted Mueller Hinton Broth (CA-MHB-212322) was the testing medium for majority of bacterial species. Brucella medium (BD-211088) supplemented with 5% LHB, 0.5% hemin and 0.1% vitamin K1 (Sigma-95271) was the testing medium for anaerobic bacteria. One day prior to the day of MIC test, bacterial strains were streaked out from -80° C. glycerol stock onto Trypticase Soy Agar (TSA) plates (Brucella blood agar for anaerobic bacteria) and incubated at 37° C. for 20 hours (in anaerobic condition for anaerobic bacteria, e.g., 80% N2, 10% H2 and 10% CO2). Single colonies of bacteria were picked by using an inoculation loop (Greiner-731175) and suspended into 5 ml sterile saline. The turbidity of the suspension was adjusted to 0.10 (Siemens MicroS can turbidity meter), which implies a concentration of colony forming units (“CFU”) of approximately 1.0×10^8 CFU/ml. The bacterial suspension was diluted 100× in testing media. For MIC experiments with NHS, testing medium and human serum (Equitech Bio Inc. BRH-949908) were mixed in the ratio of 1:1. This was used for inoculation of the daughter plates. An aliquot of 100 μl of the bacterial suspension was inoculated into each well of the daughter plates using a multi-pipette. […] The plates were incubated in ambient atmosphere and at 37° C. in an incubator for 20 hours (for anaerobic bacteria in an anaerobic condition as described above for 48 hours). The MIC values were determined and based on the standards of CLSI methods M7-A7, broth microdilution method. […] Test compounds were compared to control antibiotics Penicillin G (Sigma-13752) and levofloxacin (Sigma-28266). […] Additionally, the MIC's of another gyrase inhibitor (“GSK”) with a structure different from the inventive compounds and the antibacterial levofloxin was measured. MIC are given in μg/mL.

[2] = tested on: Escherichia coli ATCC 25922; assay: Deep thigh infection model in neutropenic mice, CFU count; assay type: in vivo; conditions: 24 h P.I.; for colony forming units (CFU) compared with ciprofloxacin: 12.5 mg/kg compound vs 2.5 mg/kg ciprofloxacin, four doses; for colony forming units (CFU) as compared to the control: neutropenic CD-1 mice, thigh, 12.5 mg/kg IV four doses (1, 3, 5, 7 h P.I.)
Method: The in vivo activity to determine the CFU following administration of the test compounds was determined on a deep thigh infection caused by Escherichia coli ATCC 25922 in mice. The in vivo efficacy of various compounds was measured using a modified version of the deep-thigh infection model disclosed in Selbie, F R, et al., Br. J. Exp. Pathol. 33 (1952), 315-26 and Zuluaga, A F, et al., BMC Infect. Dis. 6 (2005) 55, each of which is hereby incorporated by reference. The efficacy was determined measuring the number of bacterial colony forming units (“CFU”) of mice injected with Escherichia coli […] on Day 0 following administration of the compounds.
Female CD-1 mice, aged 6-8-weeks, were purchased from local licensed supplier. The mice were allowed to acclimate for 3 days in the animal facility before experimentation began. The mice were then rendered neutropenic by intraperitoneal (“I.P.”) injection of 150 mg/kg cyclophosphamide on Day-4 (4 days prior to the injection of bacteria), and a maintaining dose of 100 mg/kg cyclophosphamide on Day-1 (1 day prior to the injection of bacteria). This regimen conditioned mice to neutropenia during the study. On the day of bacterial challenge (Day 0), Escherichia coli ATCC 29522 was injected into each mouse. Prior to injection, the bacterium was streaked out from −80° C. glycerol stock onto a tryptone soya agar (“TSA”) plate on Day-1. On the day of bacterial challenging (Day 0), single colonies on the agar plate were suspended in sterile saline and the final bacterial concentration was adjusted to approximately 1×10^6 CFU/ml based on turbidity readout of the bacterial solution from a Siemens MicroScan turbidity meter. The bacterial suspension was kept on ice temporarily prior to injection once the desired concentration was achieved.
On Day 0, 100 μl of bacterial suspension as prepared above was injected into the posterior quadriceps muscles of the right thigh. Antibiotic compositions comprising a tested compound in a vehicle were given to mice through tail vein injection at one hours, three hours, five hours and 7 hours post of infection (“P.I.”). The vehicle for each antibiotic composition is 5% (w/v) solutol HS15 in water. At 24 h P.I., all mice were euthanized. Infected thigh muscles for each tested mouse were excised and stored in ice-cold sterile saline for transfer to a Biosafety Level 2 (“BSL-2”) laboratory for subsequent CFU counting. Within one hour following sample collection, the muscles from mice tested with the same antibiotic composition were homogenized by a homogenizer (IKA T10 basic S25), serially diluted in sterile saline, and plated on TSA plates. The plates were incubated at 30° C. for approximately 18 h. The CFU were counted and calculated as CFU/mouse. The animal facility was AAALAC accredited, and the animal welfare in this experiment was in compliance of IACUC.
The number of colony forming units was independently measured in five different mice per composition administered. Each mouse was administered a mass of active compound per kg weight of the mouse four times a day. Mice were administered a composition without a test compound, compositions comprising 2.5 mg(ciprofloxacin)/kg, 12.5 mg(Compound 17)/kg, 12.5 mg(Compound 23)/kg, and 12.5 mg(Compound 24)/kg).

[3] = Escherichia coli ATC-25922, 50% normal human serum, Table 5, read-out: MIC (50% NHS)
[4] = Escherichia coli ATCC-25922, 50% NHS, Table 6, read-out: MIC

For `CN1CC2CN(C(=O)Nc3cc(F)cc(F)c3)CC(C1)C2(O)c1ccc(-c2ccc(CN)cc2C#N)cc1` [Compound 23, (1R,5S,9r)-9-(4′-(aminomethyl)-2′-cyano-[1,1′-biphenyl]-4-yl)-N-(3,5-difluorophenyl)-9-hydroxy-7-methyl-3,7-diazabicyclo[3.3.1]nonane-3-carboxamide], the MIC [1, 3] was 0.5 µg/mL, the MIC [1, 4] was 0.5 µg/mL and the “colony forming units (CFU) compared with ciprofloxacin” value [2] was “Comparable results to ciprofloxacin”. The “colony forming units (CFU) as compared to the control” value [2] was “decrease the amount of colony forming units”.
For `CN1CC2CN(C(=O)Nc3cc(F)cc(F)c3)CC(C1)C2(O)c1ccc(-c2ccc(CN)cc2C#N)cn1` [Compound 24, (1R,5S,9r)-9-(5-(4-(aminomethyl)-2-cyanophenyl)pyridin-2-yl)-N-(3,5-difluorophenyl)-9-hydroxy-7-methyl-3,7-diazabicyclo[3.3.1]nonane-3-carboxamide], the MIC [1, 3] was 0.25 µg/mL, the MIC [1, 4] was 1 µg/mL and the “colony forming units (CFU) as compared to the control” value [2] was “decrease the amount of colony forming units”.
In the case of `CNCc1ccc(-c2ccc(C3(O)C4CN(C)CC3CN(C(=O)Nc3cc(F)cc(F)c3)C4)nc2)c(C#N)c1` [Compound 17, (1R,5S,9r)-9-(5-(2-cyano-4-((methylamino)methyl)phenyl)pyridin-2-yl)-N-(3,5-difluorophenyl)-9-hydroxy-7-methyl-3,7-diazabicyclo[3.3.1]nonane-3-carboxamide], the MIC [1, 3] is reported as 0.5 µg/mL, the MIC [1, 4] is reported as 0.22 µg/mL and the “colony forming units (CFU) compared with ciprofloxacin” value [2] is reported as “Comparable results to ciprofloxacin”. For the same compound, the “colony forming units (CFU) as compared to the control” value [2] was “decrease the amount of colony forming units”.

Source: US10654852B2, “Antibiotics and methods of using same” (THE BROAD INSTITUTE, INC., priority 2016, dated 2020)
